# From patent US6335013B1, “Methods and materials relating to CD39-like polypeptides” (Hyseq, Inc., priority 1999, dated 2002)
# Changes are numbered by the printed parent chain.
# T1: CD39-L4 (Homo sapiens, UniProt O75356)
# T1 construct: to allow purification of the secreted mature form of the protein; made in house; host or cells: COS-7 cells, transient transfection (pcDNA3.1); protein captured from the medium on Nickel-NTA resin
# T1 sequence (O75356 25-428): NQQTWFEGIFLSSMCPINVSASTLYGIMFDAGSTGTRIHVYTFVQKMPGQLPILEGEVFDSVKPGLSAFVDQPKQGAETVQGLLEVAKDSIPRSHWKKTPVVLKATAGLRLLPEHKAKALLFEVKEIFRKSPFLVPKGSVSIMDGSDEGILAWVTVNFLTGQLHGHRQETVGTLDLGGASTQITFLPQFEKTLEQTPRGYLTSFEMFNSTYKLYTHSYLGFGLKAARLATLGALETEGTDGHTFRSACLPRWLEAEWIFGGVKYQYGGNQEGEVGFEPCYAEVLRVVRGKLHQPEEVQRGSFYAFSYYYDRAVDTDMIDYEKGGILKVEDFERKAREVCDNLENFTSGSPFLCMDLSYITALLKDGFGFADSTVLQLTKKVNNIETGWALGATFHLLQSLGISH
# B1: ACR III: variant CD39-L4 with substitutions D168→T, S170→Q and L175→F (protein)
# chain: MATSWGTVFFMLVVSCVCSAVSHRNQQTWFEGIFLSSMCPINVSASTLYGIMFDAGSTGTRIHVYTFVQKMPGQLPILEGEVFDSVKPGLSAFVDQPKQGAETVQGLLEVAKDSIPRSHWKKTPVVLKATAGLRLLPEHKAKALLFEVKEIFRKSPFLVPKGSVSIMTGQDEGIFAWVTVNFLTGQLHGHRQETVGTLDLGGASTQITFLPQFEKTLEQTPRGYLTSFEMFNSTYKLYTHSYLGFGLKAARLATLGALETEGTDGHTFRSACLPRWLEAEWIFGGVKYQYGGNQEGEVGFEPCYAEVLRVVRGKLHQPEEVQRGSFYAFSYYYDRAVDTDMIDYEKGGILKVEDFERKAREVCDNLENFTSGSPFLCMDLSYITALLKDGFGFADSTVLQLTKKVNNIETGWALGATFHLLQSLGISH
# B2: CD39L4 Cys39 to Ser mutant with a myc epitope and a 6 His tag at the C-terminus (enzyme, not shown: small tags and cut ends)
# chain: HRNQQTWFEGIFLSSMSPINVSASTLYGIMFDAGSTGTRIHVYTFVQKMPGQLPILEGEVFDSVKPGLSAFVDQPKQGAETVQGLLEVAKDSIPRSHWKKTPVVLKATAGLRLLPEHKAKALLFEVKEIFRKSPFLVPKGSVSIMDGSDEGILAWVTVNFLTGQLHGHRQETVGTLDLGGASTQITFLPQFEKTLEQTPRGYLTSFEMFNSTYKLYTHSYLGFGLKAARLATLGALETEGTDGHTFRSACLPRWLEAEWIFGGVKYQYGGNQEGEVGFEPCYAEVLRVVRGKLHQPEEVQRGSFYAFSYYYDRAVDTDMIDYEKGGILKVEDFERKAREVCDNLENFTSGSPFLCMDLSYITALLKDGFGFADSTVLQLTKKVNNIETGWALGATFHLLQSLGISH
# notes: also called Ser39 mutant; cys-mutant CD39L4
# B3: CD39L4 Cys39 to Ala mutant with a myc epitope and a 6 His tag at the C-terminus (enzyme, not shown: small tags and cut ends)
# chain: B2 chain with S17A
# notes: also called Ala39 mutant; cys-mutant CD39L4
# B4: CD39-L2myc-His (protein)
# chain: MKKGIRYETSRKTSYIFQQPQHGPWQTRMRKISNHGSLRVAKVAYPLGLCVGVFIYVAYIKWHRATATQAFFSITRAAPGARWGQQAHSPLGTAADGHEVFYGIMFDAGSTGTRVHVFQFTRPPRETPTLTHETFKAVKPGLSAYADDVEKSAQGIRELLDVAKQDIPFDFWKATPLVLKATAGLRLLPGEKAQKLLQKVKEVFKASPFLVGDDCVSIMNGTDEGVSAWITINFLTGSLKTPGGSSVGMLDLGGGSTQIAFLPRVEGTLQASPPGYLTALRMFNRTYKLYSYSYLGLGLMSARLAILGGVEGQPAKDGKELVSPCLSPSFKGEWEHAEVTYRVSGQKAAASLHELCAARVSEVLQNRVHRTEEVKHVDFYAFSYYYDLAAGVGLIDAEKGGSLVVGDFEIAAKYVCRTLETQPQSSPFSCMDLTYVSLLLQEFGFPRSKVLKLTRKIDNVETSWALGAIFHYIDSLNRQKSPAS
# Columns and labels:
# CD39-L4 [1] = target: T1, CD39-L4; test: Substrate (nucleotide) specificity of CD39-L4, inorganic phosphate release; type: biochemical; settings: nucleotide 1 mM; for % OF CONTROL, substrate specificity of CD39-L4: relative to ADP, buffer A with 1 mM EGTA, 2 mM CaCl2 and MgCl2
# CD39-L2 [2] = test: Substrate (nucleotide) specificity of CD39-L2, inorganic phosphate release; type: biochemical, human; settings: for % OF CONTROL, substrate specificity of CD39-L2: relative to ADP, nucleotide 1 mM, buffer A with 1 mM EGTA, 3 mM CaCl2 and 3 mM MgCl2, 37° C., 30 min; for enzymatic activity relative to ADP hydrolysis: assays repeated with 15 mM ADP and 15 mM CaCl2
# CD39-L4 [3] = target: T1, CD39-L4; test: Inhibition of CD39-L4 ADPase activity by ATPase/phosphatase inhibitors and chelators; type: biochemical; settings: concentrations as in Table 1
# CD39-L2 [4] = test: Inhibition of CD39-L2 ADPase activity by ATPase/phosphatase inhibitors and chelators; type: biochemical, human; settings: concentrations as in Table 3
# [5] = ADPase and ATPase activity of CD39L4 wild type and ACR mutants, inorganic phosphate released; type: biochemical
# [6] = target: the molecule itself; test: Western blot of SDS-PAGE, self-association (dimer)
# [7] = ADPase activity of CD39-L2 from transfected COS-7 cells, stimulation by divalent cations and Ca2+ titration; type: biochemical
# [8] = Kinetic characteristics of CD39-L2 ADP hydrolysis; type: biochemical
# [9] = 15 mM CaCl2, ADP 0.75-18 mM, 15 min, 37° C.
Molecule,"% OF CONTROL, substrate specificity of CD39-L4 (CD39-L4 [1]) [%]","% OF CONTROL, substrate specificity of CD39-L2 (CD39-L2 [2]) [%]","inhibition of Ca2+ and Mg2+ stimulated CD39-L4 ADPase activity, in words (CD39-L4 [3])","inhibition of CD39-L2 ADPase activity, in words (CD39-L2 [4])",also measured
"Nc1ncnc2c1ncn2[C@@H]1O[C@H](COP(=O)(O)OP(=O)(O)O)[C@@H](O)[C@H]1O [ADP, Adenosine diphosphate]",100 ± 15,100 ± 8,,,rate of ADP hydrolysis by CD39-L4 relative to ATP (CD39-L4 [1]): approximately twenty-fold higher than ATP
"Nc1ncnc2c1ncn2[C@@H]1O[C@H](COP(=O)(O)OP(=O)(O)OP(=O)(O)O)[C@@H](O)[C@H]1O [ATP, Adenosine triphosphate]",5 ± 1,16 ± 2,,,"hydrolysis of the nucleotide by CD39-L4, in words (CD39-L4 [1]): poorest substrate"
Nc1ncnc2c1ncn2[C@@H]1O[C@H](COP(=O)(O)OP(=O)(O)OP(=O)(O)OP(=O)(O)OP(=O)(O)OC[C@H]2O[C@@H](n3cnc4c(N)ncnc43)[C@H](O)[C@@H]2O)[C@@H](O)[C@H]1O [Ap5A],,,did not inhibit activity,did not inhibit activity,
Nc1ccn([C@@H]2O[C@H](COP(=O)(O)OP(=O)(O)O)[C@@H](O)[C@H]2O)c(=O)n1 [CDP],268 ± 11,282 ± 18,,,enzymatic activity relative to ADP hydrolysis (CD39-L2 [2]): 73%
Nc1ccn([C@@H]2O[C@H](COP(=O)(O)OP(=O)(O)OP(=O)(O)O)[C@@H](O)[C@H]2O)c(=O)n1 [CTP],26 ± 2,44 ± 4,,,
O=C(O)CN(CCN(CC(=O)O)CC(=O)O)CC(=O)O [EDTA],,,significantly inhibited activity,inhibited CD39-L2 activity,
O=C(O)CN(CCOCCOCCN(CC(=O)O)CC(=O)O)CC(=O)O [EGTA],,,significantly inhibited activity,inhibited CD39-L2 activity,
F [F^−],,,did not inhibit activity,partially inhibited activity,
Nc1nc2c(ncn2[C@@H]2O[C@H](COP(=O)(O)OP(=O)(O)O)[C@@H](O)[C@H]2O)c(=O)[nH]1 [GDP],334 ± 38,338 ± 52,,,"hydrolysis of the nucleotide by CD39-L4, in words (CD39-L4 [1]): very efficiently hydrolyzed; enzymatic activity relative to ADP hydrolysis (CD39-L2 [2]): 280%"
Nc1nc2c(ncn2[C@@H]2O[C@H](COP(=O)(O)OP(=O)(O)OP(=O)(O)O)[C@@H](O)[C@H]2O)c(=O)[nH]1 [GTP],34 ± 1,39 ± 1,,,
[N-]=[N+]=[N-] [N3^−],,,did not significantly inhibit,not inhibited,
CCN1C(=O)C=CC1=O [NEM],,,did not significantly inhibit,not inhibited,
C[C@@H]1O[C@@H](O[C@H]2C[C@@H](O)[C@]3(CO)[C@H]4[C@H](O)C[C@]5(C)[C@@H](C6=CC(=O)OC6)CC[C@]5(O)[C@@H]4CC[C@]3(O)C2)[C@H](O)[C@H](O)[C@H]1O [Ouabain],,,did not significantly inhibit,not inhibited,
O=c1ccn([C@@H]2O[C@H](COP(=O)(O)OP(=O)(O)O)[C@@H](O)[C@H]2O)c(=O)[nH]1 [UDP],408 ± 14,303 ± 5,,,"hydrolysis of the nucleotide by CD39-L4, in words (CD39-L4 [1]): very efficiently hydrolyzed; enzymatic activity relative to ADP hydrolysis (CD39-L2 [2]): 228%"
O=c1ccn([C@@H]2O[C@H](COP(=O)(O)OP(=O)(O)OP(=O)(O)O)[C@@H](O)[C@H]2O)c(=O)[nH]1 [UTP],12 ± 4,13 ± 1,,,
B1,,,,,"hydrolysis of ADP, in words ([5]; ADP as substrate): hydrolyze ADP; hydrolysis of ATP, in words ([5]; ATP as substrate): neither the CD39L4 nor the CD39L4 mutant, ACR III, catalyzed hydrolysis; ADPase activity compared to wild type CD39-L4 ([5]; protein from COS-7 medium, 1 mM ADP, increase due to amount of protein, not specific activity): six-fold over wild type"
B2,,,,,binding result [6]: no binding
B3,,,,,binding result [6]: no binding
B4,,,,,"stimulation of ADPase activity by Ca2+ ([7]; 15 mM ADP, CaCl2 added to 15 mM): 17 fold; stimulation of ADPase activity by Mg2+ ([7]; 15 mM ADP, MgCl2 added to 15 mM): 8 fold; fold increase in ADPase activity over cells transfected with vector alone ([7]; CD39-L2myc-His from COS-7 medium on Nickel-NTA resin, 1 mM ADP, no added cation): 8.7 fold; further fold increase in ADPase activity when Ca2+ and Mg2+ added ([7]; Ca2+ and Mg2+ added, 1 mM ADP): 2-3 fold; effect of high Ca2+ concentration on ADPase activity ([7]; CaCl2 2-15 mM, low substrate concentration, 37° C., 20 min): no inhibitory effect; K (Hill's Equation) [8, 9]: 364.5; cooperativity, n (Hill's Equation) [8, 9]: 2.48; Vmax of ADP hydrolysis ([8]; 15 mM CaCl2, ADP 0.75-18 mM, 15 min, 37° C., 3.5 ng protein per reaction): 1028 pmol/min; substrate at half-maximal velocity [S]0.5 ([8]; [S]0.5=K^1/n): 10.6 mM"
